In patent US20260034112A1, “MULTI-CYCLIC IRAK1 AND IRAK4 INHIBITING COMPOUNDS AND USES THEREOF” (CHILDREN'S HOSPITAL MEDICAL CENTER, priority 2022, published 2026):

Tested on: THP1 cells
Assay type: cell-based, human

Cc1cc(-c2nc(C(=O)Nc3cc4oc(N5CCOCC5)nc4nc3N3CC[C@@H](O)C3)co2)ccn1 [CA-4948, emavusertib] was tested, and the “Log(FC) of gene KCNH2” value was −0.6125, the “Log(FC) of gene ABCC2” value (CA-4948 vs DMSO in THP1 cells) was 0.6855 and the “Log(FC) of gene AC016629.8” value (CA-4948 vs DMSO in THP1 cells) was 0.586. For the same compound, the “Log(FC) of gene AC093391.2” value (CA-4948 vs DMSO in THP1 cells) was 0.7835, the “Log(FC) of gene ADAM8” value (CA-4948 vs DMSO in THP1 cells) was 0.6886 and the “Log(FC) of gene ADAM19” value (CA-4948 vs DMSO in THP1 cells) was 0.5984. The “Log(FC) of gene ADCY4” value (CA-4948 vs DMSO in THP1 cells) was 1.023, the “Log(FC) of gene AMH” value (CA-4948 vs DMSO in THP1 cells) was 0.7789 and the “Log(FC) of gene ANKFN1” value (CA-4948 vs DMSO in THP1 cells) was 0.6129. For the same compound, the “Log(FC) of gene ANKRD34A” value (CA-4948 vs DMSO in THP1 cells) was 0.9288, the “Log(FC) of gene AP3B2” value (CA-4948 vs DMSO in THP1 cells) was 0.7192 and the “Log(FC) of gene AP000330.8” value (CA-4948 vs DMSO in THP1 cells) was 0.7147. For the same compound, the “Log(FC) of gene APOE” value (CA-4948 vs DMSO in THP1 cells) was 0.6335, the “Log(FC) of gene APOLD1” value (CA-4948 vs DMSO in THP1 cells) was 0.7365 and the “Log(FC) of gene ARID3C” value (CA-4948 vs DMSO in THP1 cells) was 0.8751. For the same compound, the “Log(FC) of gene ARL17B” value (CA-4948 vs DMSO in THP1 cells) was 0.6318, the “Log(FC) of gene ARTN” value (CA-4948 vs DMSO in THP1 cells) was 0.6881 and the “Log(FC) of gene ASIC3” value (CA-4948 vs DMSO in THP1 cells) was 1.28. For the same compound, the “Log(FC) of gene ATP2B3” value (CA-4948 vs DMSO in THP1 cells) was 0.7931, the “Log(FC) of gene AURKB” value (CA-4948 vs DMSO in THP1 cells) was 0.6324 and the “Log(FC) of gene BRICD5” value (CA-4948 vs DMSO in THP1 cells) was 0.6636. For the same compound, the “Log(FC) of gene BTBD19” value (CA-4948 vs DMSO in THP1 cells) was 0.6939, the “Log(FC) of gene BVES-AS1” value (CA-4948 vs DMSO in THP1 cells) was 0.5945 and the “Log(FC) of gene BZRAP1” value (CA-4948 vs DMSO in THP1 cells) was 1.334. The “Log(FC) of gene C1orf51” value (CA-4948 vs DMSO in THP1 cells) was 1.033, the “Log(FC) of gene C2orf48” value (CA-4948 vs DMSO in THP1 cells) was 0.606 and the “Log(FC) of gene C5orf56” value (CA-4948 vs DMSO in THP1 cells) was 0.7488. The “Log(FC) of gene C9orf37” value (CA-4948 vs DMSO in THP1 cells) was 0.6108, the “Log(FC) of gene C15orf62” value (CA-4948 vs DMSO in THP1 cells) was 0.8673 and the “Log(FC) of gene C16orf86” value (CA-4948 vs DMSO in THP1 cells) was 0.6351. The “Log(FC) of gene CACTIN-AS1” value (CA-4948 vs DMSO in THP1 cells) was 0.7321, the “Log(FC) of gene CATSPER3” value (CA-4948 vs DMSO in THP1 cells) was 0.6152 and the “Log(FC) of gene CCDC103” value (CA-4948 vs DMSO in THP1 cells) was −0.6115. The “Log(FC) of gene CCDC109B” value (CA-4948 vs DMSO in THP1 cells) was 0.8991, the “Log(FC) of gene CCDC154” value (CA-4948 vs DMSO in THP1 cells) was 0.7952 and the “Log(FC) of gene CCDC155” value (CA-4948 vs DMSO in THP1 cells) was 0.6645. The “Log(FC) of gene CCDC183” value (CA-4948 vs DMSO in THP1 cells) was 0.9658, the “Log(FC) of gene CD101” value (CA-4948 vs DMSO in THP1 cells) was 0.5897 and the “Log(FC) of gene CD163” value (CA-4948 vs DMSO in THP1 cells) was −0.5952. For the same compound, the “Log(FC) of gene CD302” value (CA-4948 vs DMSO in THP1 cells) was 0.6021, the “Log(FC) of gene CDC42EP2” value (CA-4948 vs DMSO in THP1 cells) was 0.6518 and the “Log(FC) of gene CEACAM19” value (CA-4948 vs DMSO in THP1 cells) was 1.259. The “Log(FC) of gene CGN” value (CA-4948 vs DMSO in THP1 cells) was 0.9021, the “Log(FC) of gene CHN2” value (CA-4948 vs DMSO in THP1 cells) was 0.8531 and the “Log(FC) of gene CHRFAM7A” value (CA-4948 vs DMSO in THP1 cells) was −0.9429. The “Log(FC) of gene CILP2” value (CA-4948 vs DMSO in THP1 cells) was 0.8989, the “Log(FC) of gene CLDN15” value (CA-4948 vs DMSO in THP1 cells) was 0.6387 and the “Log(FC) of gene CLEC10A” value (CA-4948 vs DMSO in THP1 cells) was 0.6157. The “Log(FC) of gene CLEC12B” value (CA-4948 vs DMSO in THP1 cells) was 0.7555, the “Log(FC) of gene CLK1” value (CA-4948 vs DMSO in THP1 cells) was 1.08 and the “Log(FC) of gene CLK3” value (CA-4948 vs DMSO in THP1 cells) was 0.9323. For the same compound, the “Log(FC) of gene CLK4” value (CA-4948 vs DMSO in THP1 cells) was 0.8127, the “Log(FC) of gene CMTM1” value (CA-4948 vs DMSO in THP1 cells) was 1.158 and the “Log(FC) of gene CNIH2” value (CA-4948 vs DMSO in THP1 cells) was 0.9526. The “Log(FC) of gene CNKSR1” value (CA-4948 vs DMSO in THP1 cells) was 0.9226, the “Log(FC) of gene COL7A1” value (CA-4948 vs DMSO in THP1 cells) was 1.605 and the “Log(FC) of gene CPNE5” value (CA-4948 vs DMSO in THP1 cells) was 0.7008. For the same compound, the “Log(FC) of gene CPT1B” value (CA-4948 vs DMSO in THP1 cells) was 1.318, the “Log(FC) of gene CRABP2” value (CA-4948 vs DMSO in THP1 cells) was 3.095 and the “Log(FC) of gene CTRL” value (CA-4948 vs DMSO in THP1 cells) was 1.027. The “Log(FC) of gene DCAF4L1” value (CA-4948 vs DMSO in THP1 cells) was 1.097, the “Log(FC) of gene DCAKD” value (CA-4948 vs DMSO in THP1 cells) was 0.6901 and the “Log(FC) of gene DCST2” value (CA-4948 vs DMSO in THP1 cells) was 1.278. The “Log(FC) of gene DDB2” value (CA-4948 vs DMSO in THP1 cells) was 0.5883, the “Log(FC) of gene DEGS2” value (CA-4948 vs DMSO in THP1 cells) was 0.6503 and the “Log(FC) of gene DMPK” value (CA-4948 vs DMSO in THP1 cells) was 0.6345. The “Log(FC) of gene DNAH1” value (CA-4948 vs DMSO in THP1 cells) was 0.6015, the “Log(FC) of gene DNAJC27-AS1” value (CA-4948 vs DMSO in THP1 cells) was 0.6304 and the “Log(FC) of gene DNASE1L2” value (CA-4948 vs DMSO in THP1 cells) was 1.008. The “Log(FC) of gene DND1” value (CA-4948 vs DMSO in THP1 cells) was 1.389, the “Log(FC) of gene DNHD1” value (CA-4948 vs DMSO in THP1 cells) was 1.083 and the “Log(FC) of gene DRP2” value (CA-4948 vs DMSO in THP1 cells) was 0.9019. The “Log(FC) of gene EFCAB12” value (CA-4948 vs DMSO in THP1 cells) was 1.697, the “Log(FC) of gene EGFR” value (CA-4948 vs DMSO in THP1 cells) was 0.882 and the “Log(FC) of gene EIF3CL” value (CA-4948 vs DMSO in THP1 cells) was 0.7466. For the same compound, the “Log(FC) of gene ELMO3” value (CA-4948 vs DMSO in THP1 cells) was 0.7963 and the “Log(FC) of gene ENHO” value (CA-4948 vs DMSO in THP1 cells) was 0.7452.
